Assay results reported in ChEMBL document CHEMBL5131444, “Essential structure of orexin 1 receptor antagonist YNT-707: Conversion of the 16-cyclopropylmethyl group to the 16-sulfonamide group in d-nor-nalfurafine derivatives” (Bioorg Med Chem Lett, 2022).

How the values were obtained:
[1] = target: T1, Orexin/Hypocretin receptor type 1 (Homo sapiens, UniProt O43613); assay: Antagonist activity at OX1R (unknown origin) by cell-based calcium assay; format: functional
T1 sequence (O43613 whole entry): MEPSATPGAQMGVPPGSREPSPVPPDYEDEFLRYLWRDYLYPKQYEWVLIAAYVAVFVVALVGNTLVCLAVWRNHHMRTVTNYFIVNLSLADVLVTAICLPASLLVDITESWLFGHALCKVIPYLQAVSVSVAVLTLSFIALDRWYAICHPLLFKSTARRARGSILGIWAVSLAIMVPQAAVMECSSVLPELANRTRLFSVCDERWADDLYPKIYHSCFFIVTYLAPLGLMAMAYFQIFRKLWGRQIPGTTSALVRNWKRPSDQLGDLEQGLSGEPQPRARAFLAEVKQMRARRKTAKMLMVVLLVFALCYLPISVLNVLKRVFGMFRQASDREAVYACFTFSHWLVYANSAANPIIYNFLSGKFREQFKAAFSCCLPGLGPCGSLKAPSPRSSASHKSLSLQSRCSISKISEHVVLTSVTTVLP

Orexin receptor type 2 = target: T2, Orexin receptor type 2 (Homo sapiens, UniProt O43614); assay: Antagonist activity at OX2R (unknown origin) by cell-based calcium assay
T2 sequence (O43614 whole entry): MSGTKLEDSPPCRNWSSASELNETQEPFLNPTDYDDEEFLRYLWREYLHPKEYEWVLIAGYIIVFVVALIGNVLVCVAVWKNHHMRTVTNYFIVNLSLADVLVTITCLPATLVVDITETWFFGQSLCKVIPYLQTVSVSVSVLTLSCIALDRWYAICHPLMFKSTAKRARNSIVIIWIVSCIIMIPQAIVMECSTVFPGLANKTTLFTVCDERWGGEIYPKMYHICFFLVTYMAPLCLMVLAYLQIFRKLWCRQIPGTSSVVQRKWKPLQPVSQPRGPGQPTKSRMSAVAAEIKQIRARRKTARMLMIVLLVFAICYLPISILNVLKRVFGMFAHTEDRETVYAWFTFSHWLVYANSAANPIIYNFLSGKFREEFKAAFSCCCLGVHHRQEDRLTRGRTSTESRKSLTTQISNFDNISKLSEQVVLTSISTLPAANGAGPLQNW

Row | Compound | Ki [1] | IC50 (Orexin receptor type 2) | Ki (Orexin receptor type 2)
1 | COc1ccc2c3c1O[C@H]1[C@H](N(C)C(=O)/C=C/c4ccoc4)CC[C@@]4(O)[C@@H](C2)N(S(=O)(=O)c2ccccc2)CC[C@]314 | 16.8 nM | > 10000 nM | –
2 | COc1ccc2c3c1O[C@H]1[C@H](N(C)C(=O)/C=C/c4ccoc4)CC[C@@]4(O)[C@@H](C2)N(S(=O)(=O)c2ccccc2N(C)C)CC[C@]314 | 4.75 nM | – | 1300 nM
3 | COc1ccc2c3c1O[C@H]1[C@H](N(C)C(=O)/C=C/c4ccoc4)CC=C4[C@@H](C2)N(S(=O)(=O)c2ccccc2)CC[C@]431 | 2.34 nM | > 10000 nM | –
4 | COc1ccc2c3c1O[C@H]1[C@H](N(C)C(=O)/C=C/c4ccoc4)CC[C@H]4[C@@H](C2)N(S(=O)(=O)c2ccccc2)CC[C@@]341 | 23.6 nM | > 10000 nM | –
5 | COc1ccc2c3c1O[C@H]1[C@H](N(C)C(=O)/C=C/c4ccoc4)CC[C@H]4[C@@H](C2)N(S(=O)(=O)c2ccccc2N(C)C)CC[C@@]341 | 53.5 nM | > 10000 nM | –
6 | COc1ccc2c3c1O[C@H]1[C@H](N(C)C(=O)/C=C/c4ccoc4)CC=C4[C@@H](C2)N(S(=O)(=O)c2ccccc2N(C)C)CC[C@]431 | 8.82 nM | > 10000 nM | –
